# Experiments:
# H3K9me3(1–16) peptides [1] = assay: peptide pulldown assay; type: binding; conditions: 300 mM NaCl HBS-EP; Coomassie gel; n = 3 (p values 0.021, 0.008; ns 0.181)
# Description: H3K9me3 or unmethylated H3(1–16) peptides, linked to Dynabeads MyOne streptavidin T1 (Thermo Fisher Scientific), were used in pulldown assays with eluted GST-HP1 in HBS-EP (300 mM NaCl, 10 mM HEPES KOH pH 7.4, 5 mM EDTA and 0.2% NP-40). Pulldown assays were performed in 300 mM NaCl HBS-EP as previously described. Samples were resuspended in 2 × Laemmli buffer and resolved by SDS-PAGE followed by Coomassie-blue staining. Images were quantified using ImageJ software.
# H3K9me3(1–16) peptides [2] = assay: bio-layer interferometry (BLI); type: binding; conditions: 20 mM Hepes KOH pH 7.2, 70 mM KCl, GST fusion, association 120 s, dissociation 120 s, WT 28.0 μM, R38/9K 25.5 μM, R38/9A 28.3 μM and lower concentrations
# Description: Recombinant mouse full-length HP1 wildtype and mutant proteins were expressed in (as GST fusion proteins), and purified from, Escherichia coli as described. Proteins were concentrated using Amicon Ultra centrifugation filters with a 30 kDa cutoff (Millipore), washed into binding buffer (20 mM Hepes KOH pH 7.2, 70 mM KCl, 1 mM DTT, 0.1% Tween-20, 5% glycerol). Protein concentrations were determined by Bradford protein assay against a BSA standard, and purity was verified by SDS-PAGE followed by Coomassie-blue staining. Real-time binding assays of GST-HP1γ were performed using the BLItz® system (ForteBio) in binding buffer (+ 0.1% BSA). Biotinylated H3(1–16) peptides (NH2-[…](me3)STGGKAP-Biotin) were immobilised to Dip and Read High Precision Streptavidin (SAX) Biosensors (ForteBio), and kinetics for a range of protein concentrations were measured under advanced kinetics settings (1. initial baseline measuring buffer only: 30 s, 2. loading of peptides onto sensors: 120 s, 3. effective baseline measurement: 30 s, 4. association of GST-HP1γ proteins: 120 s, 5. dissociation of GST-HP1γ proteins: 120 s). The data were normalised to the effective baseline signal by subtracting the average baseline value (150–180 s) from each data point (150–420 s). […] Raw data are summarised in Additional file 3: Table S1.
# PADI4 = assay: in vitro citrullination (deimination) assay of HP1γ; type: biochemical, human; conditions: with calcium; for citrullination by PADI4, in words: GST fusion proteins, anti-peptidyl-citrulline immunoblot, n = 3 (p values 0.002, 0.003, 0.008)
# Description: For immunoblotting, cells were lysed in 2 × Laemmli buffer and sonicated in a water bath (Fisherbrand) for 3 min to shear genomic DNA, spun down at full speed in a microfuge for 15 min and incubated for 5 min at 95 °C. Proteins were resolved by SDS-PAGE, transferred to nitrocellulose membrane (Millipore) using wet transfer (transfer buffer: 192 mM glycine, 25 mM Tris.HCl pH8.8) and incubated in blocking solution (5% BSA in TBS containing 0.5% Tween-20 for citrulline sensitive antibodies and 5% non-fat milk powder in TBS containing 0.1% Tween-20 for all other antibodies) for 1 h at room temperature (RT). Membranes were incubated with primary antibody at 4 °C o/n and appropriate HRP-conjugated secondary antibody for 1 h at RT. Membranes were then incubated for enhanced chemiluminescence (ECL, Promega), and proteins were detected by exposure to X-ray film or using the ChemiDoc™ MP imaging system (Bio-Rad). Images were quantified using ImageJ analysis software. Primary antibodies diluted in blocking solution were used to detect citrullinated histone H3R2 (H3R2-Cit, Abcam ab176843 at 1:1000 dilution), HP1γ (Millipore 05-690 MAB clone 42s2 [16] at 1:1000 dilution), β-Tubulin (Abcam ab6046 at 1:1000 dilution) and peptidyl-citrulline (Millipore MABN328, clone F95 [48] at 1:1000 dilution). HRP-conjugated secondary antibodies diluted in blocking solution were used against mouse IgG (Dako, P0447 at 1:5000 dilution), rabbit IgG (Abcam, ab6721 at 1:20,000 dilution) and sheep IgG (Abcam, ab6747 at 1:5000 dilution).
# In vitro deimination of GST-HP1 variants was carried out as described previously [22]. In vitro deimination assays were performed in the presence and absence of 100 ng H3(1–16) or H3K9me3 peptides as appropriate. Samples were resuspended in 1 × Laemmli buffer for immunoblot analysis.
# mESCs [3] = assay: immunoprecipitation of endogenous HP1γ and anti-peptidyl-citrulline immunoblot; type: cell-based, mouse; conditions: −LIF 72 h versus +LIF; nuclear lysates; three replicates
# Description: For immunoblotting, cells were lysed in 2 × Laemmli buffer and sonicated in a water bath (Fisherbrand) for 3 min to shear genomic DNA, spun down at full speed in a microfuge for 15 min and incubated for 5 min at 95 °C. Proteins were resolved by SDS-PAGE, transferred to nitrocellulose membrane (Millipore) using wet transfer (transfer buffer: 192 mM glycine, 25 mM Tris.HCl pH8.8) and incubated in blocking solution (5% BSA in TBS containing 0.5% Tween-20 for citrulline sensitive antibodies and 5% non-fat milk powder in TBS containing 0.1% Tween-20 for all other antibodies) for 1 h at room temperature (RT). Membranes were incubated with primary antibody at 4 °C o/n and appropriate HRP-conjugated secondary antibody for 1 h at RT. Membranes were then incubated for enhanced chemiluminescence (ECL, Promega), and proteins were detected by exposure to X-ray film or using the ChemiDoc™ MP imaging system (Bio-Rad). Images were quantified using ImageJ analysis software. Primary antibodies diluted in blocking solution were used to detect citrullinated histone H3R2 (H3R2-Cit, Abcam ab176843 at 1:1000 dilution), HP1γ (Millipore 05-690 MAB clone 42s2 [16] at 1:1000 dilution), β-Tubulin (Abcam ab6046 at 1:1000 dilution) and peptidyl-citrulline (Millipore MABN328, clone F95 [48] at 1:1000 dilution). […]
# mESCs [4] = assay: live-cell single-particle tracking, 13.5 ms, jump distance analysis; type: cell-based, mouse; conditions: for Diffusion coefficient, Bound / Diffusion coefficient, Diffusing / Percentage, Bound / Percentage, Diffusing: 13.5 ms
# Description: Parental E14 mouse embryonic stem cell (mESC) line was profiled by transcriptome analysis, qPCR and potency assays and was routinely tested for mycoplasma contamination and tested negative. Cells were cultured in DMEM (Gibco) supplemented with 15% standard FCS (Gibco), 0.1 mM non-essential amino acids (Gibco), 1% penicillin/streptomycin, 2 mM L-glutamine (Gibco), 1 mM sodium pyruvate (Gibco), 0.1 mM β-mercaptoethanol (Life Technologies) and 10^6 units/l mLIF (ESGRO, Millipore). E14 cells were stored in incubators at 37 °C in 7.5% CO2 (100% humidity) and maintained in 0.1% gelatin coated 10-cm culture dishes with 1:6 passaging every 2 days. Media was changed on a daily basis. E14 ESCs expressing mouse mEos3.2–HaloTag-HP1 fusion proteins were generated by transfecting appropriate pSB7 plasmids into E14 cells using Lipofectamine 2000 transfection reagent (Invitrogen), followed by selection in 600 µg/ml geneticin (Life Technologies). After 2 weeks of geneticin selection, cells were sorted using a Sony SH800S cell sorter for the expression of mEos3.2. Differentiation of ESCs was induced by LIF withdrawal. ESCs cultured in complete ES cell media (+ LIF) were trypsinised and washed twice in 1x PBS to remove residual LIF, seeded into ES cell media without LIF and incubated for 24, 48 or 72 h.
# An IX73 Olympus inverted microscope was used with circularly polarised laser beams aligned and focused at the back aperture of an Olympus 1.40 NA 100 × oil objective (Universal Plan Super Apochromat, 100 × , NA 1.40, UPLSAPO100XO/1.4). Continuous wavelength diode laser light sources used include a 561-nm (Cobolt, Jive 200, 200 mW) and a 405-nm laser (Stradus, Toptica, 405–100, 100 mW). Oblique angle illumination was achieved by aligning the laser off axis such that the emergent beam at the sample interface was near-collimated and incident at an angle slightly less than the critical angle θc ~ 67° for a glass/water interface. This generated a ~ 50 μm diameter excitation footprint. The power of the collimated beams at the back aperture of the microscope was 10 kW/cm^2 and 10–100 W/cm^2 for the 561-nm and 405-nm laser beams, respectively. The lasers were reflected by dichroic mirrors (Semrock, Di01-R405/488/561/635). The fluorescence emission was collected through the same objective and then further filtered using a combination of long-pass and band-pass filters (BLP01-561R and FF01-587/35 for 561 nm excitation). The emission signal was projected onto an EMCCD (Photometrics, Evolve 512 Delta) with an electron multiplication gain of 250 ADU/photon operating in a frame transfer mode.
# mESCs expressing mEos3.2–HaloTag-tagged HP1γ were passaged 2 days before imaging onto 35-mm glass bottom dishes No 1.0 (MatTek Corporation P35G-1.0-14-C Case) in phenol red-free serum and LIF conditions, if not stated otherwise. Just before single-particle tracking (SPT) imaging experiments, cells were labelled with 0.5 nM HaloTag–JF549 ligand for at least 15 min, followed by two washes in PBS and a 30-min incubation at 37 °C in media, before imaging the cells in fresh phenol red-free serum and LIF conditions. Cells were under-labelled to prevent overlap of fluorophores during SPT. Using 561 nm excitation, fluorescence images were collected as movies of 10,000 frames at 13.5 ms or 1000 to 5000 frames at 500 ms exposure. For live-cell tracking, data were collected for three biological replicates on separate dishes and the average values compared.
# Live-cell 13.5-ms single-molecule traces were analysed using software that detects single-molecule trajectories from SPT movies. Briefly, the code detected puncta positions in each image frame using a brightness-weighted centroid after applying a band-pass filter to remove low-frequency background and high-frequency noise from the image data. To track the HP1 single molecules, only fluorescent puncta smaller than 3 pixels and with a signal to noise greater than 8 were analysed. […]
substance,measurement,setting,value
HP1γR38/9K: HP1γ with both R38 and R39 mutated to lysine,"binding in pulldown, in words",H3K9me3(1–16) peptides [1],maintained binding to H3K9me3 peptides
same,"BLI binding, in words",H3K9me3(1–16) peptides [2],binds H3K9me3 peptides with similar affinity to the WT protein
same,"BLI binding, in words",H3K9me3(1–16) peptides [2]; listed as R38/9K,maintained binding to H3K9me3 peptides
same,"enhancement of citrullination by H3K9me3 peptides, in words","PADI4; H3K9me3(1–16) peptides, mutant used as substrate",abolished
heterochromatin protein 1 gamma [HP1γ],"binding in pulldown, in words",H3K9me3(1–16) peptides [1],specifically binds to H3K9me3 peptides
same,"citrullination by PADI4, in words",PADI4,PADI4 citrullinates HP1γ in vitro
same,citrullination of endogenous HP1γ in differentiating mESCs,mESCs [3],significantly less citrullinated in differentiating mESCs
R39K: HP1γ with R39 substituted with lysine,"citrullination by PADI4, in words",PADI4,abolished
"HP1γI165K: chromoshadow domain (CSD) mutant HP1γI165K, which prevents dimerisation of HP1γ [reference compound]","Diffusion coefficient, Bound","mESCs [4]; +LIF, replicate i",0.081 µm2s-1
same,"Diffusion coefficient, Diffusing","mESCs [4]; +LIF, replicate i",1.500 µm2s-1
same,"Percentage, Bound","mESCs [4]; +LIF, replicate i",32.7%
same,"Percentage, Diffusing","mESCs [4]; +LIF, replicate i",67.3%
same,"Diffusion coefficient, Bound","mESCs [4]; +LIF, replicate ii",0.100 µm2s-1
same,"Diffusion coefficient, Diffusing","mESCs [4]; +LIF, replicate ii",1.485 µm2s-1
same,"Percentage, Bound","mESCs [4]; +LIF, replicate ii",20.9%
same,"Percentage, Diffusing","mESCs [4]; +LIF, replicate ii",79.1%
same,"Diffusion coefficient, Bound","mESCs [4]; +LIF, replicate iii",0.00228 µm2s-1
same,"Diffusion coefficient, Diffusing","mESCs [4]; +LIF, replicate iii",1.500 µm2s-1
same,"Percentage, Bound","mESCs [4]; +LIF, replicate iii",0.4%
same,"Percentage, Diffusing","mESCs [4]; +LIF, replicate iii",99.6%
same,"Diffusion coefficient, Bound","mESCs [4]; +LIF, replicate iv",0.023 µm2s-1
same,"Diffusion coefficient, Diffusing","mESCs [4]; +LIF, replicate iv",1.500 µm2s-1
same,"Percentage, Bound","mESCs [4]; +LIF, replicate iv",4%
same,"Percentage, Diffusing","mESCs [4]; +LIF, replicate iv",96%
same,"diffusion coefficient of bound molecules, in words","mESCs [4]; mESCs, n = 4–5",remained unchanged
same,diffusion of diffusing molecules versus wildtype,"mESCs [4]; mESCs, n = 4–5, p value: 0.0001",moved significantly more quickly than wildtype molecules
same,"percentages of molecules within diffusing and bound fraction, significance versus WT","mESCs [4]; n = 4–5, p value > 0.165",ns.
same,"Diffusion coefficient, Diffusing","mESCs [4]; −LIF, replicate i",1.101 µm2s-1
same,"Percentage, Bound","mESCs [4]; −LIF, replicate i",10%
same,"Percentage, Diffusing","mESCs [4]; −LIF, replicate i",90%
same,"Diffusion coefficient, Bound","mESCs [4]; −LIF, replicate ii",0.098 µm2s-1
same,"Diffusion coefficient, Diffusing","mESCs [4]; −LIF, replicate ii",1.500 µm2s-1
same,"Percentage, Bound","mESCs [4]; −LIF, replicate ii",16.6%
same,"Percentage, Diffusing","mESCs [4]; −LIF, replicate ii",83.4%

# From paper PMC6444592, “Citrullination of HP1γ chromodomain affects association with chromatin” (Epigenetics & Chromatin, 2019)
